Measurements published in ChEMBL document CHEMBL1157993, “Structure-antimutagenic activity relationship study of plicatin B” (J Nat Prod, 1999).

How the values were obtained:
Salmonella typhimurium [1] = assay: Antimutagenic activity in Salmonella Typhimurium TA100 assessed as inhibition of ethyl methanesulfonate-induced mutation at 7.8 uM treated for 30 mins and measured after 2 days by modified Ames test; assay type: functional, Salmonella enterica subsp. enterica serovar Typhimurium; conditions: Salmonella enterica
Salmonella typhimurium [2] = assay: Antimutagenic activity in Salmonella Typhimurium TA100 assessed as inhibition of ethyl methanesulfonate-induced mutation at 3.9 uM treated for 30 mins and measured after 2 days by modified Ames test; assay type: functional, Salmonella enterica subsp. enterica serovar Typhimurium; conditions: Salmonella enterica
Salmonella typhimurium [3] = assay: Antimutagenic activity in Salmonella Typhimurium TA100 assessed as inhibition of ethyl methanesulfonate-induced mutation at 31.3 uM treated for 30 mins and measured after 2 days by modified Ames test; assay type: functional, Salmonella enterica subsp. enterica serovar Typhimurium; conditions: Salmonella enterica
[4] = Cytotoxicity against Salmonella Typhimurium TA100 assessed as maximun non-toxic concentrations after 15 hrs […]; assay type: organism-based; conditions: salmonella enterica subsp. enterica serovar typhimurium, Salmonella Typhimurium TA100 cells; read-out: Activity
Salmonella typhimurium [5] = assay: Antimutagenic activity in Salmonella Typhimurium TA100 assessed as inhibition of ethyl methanesulfonate-induced mutation at 3.9 to 125 uM treated for 30 mins and measured after 2 days by modified Ames test; assay type: functional, Salmonella enterica subsp. enterica serovar Typhimurium
Salmonella typhimurium [6] = assay: Antimutagenic activity in Salmonella Typhimurium TA100 assessed as inhibition of ethyl methanesulfonate-induced mutation at 25 ug/mL treated for 30 mins and measured after 2 days by modified Ames test; assay type: functional, Salmonella enterica subsp. enterica serovar Typhimurium; conditions: Salmonella enterica
Salmonella typhimurium [7] = assay: Antimutagenic activity in Salmonella Typhimurium TA100 assessed as inhibition of ethyl methanesulfonate-induced mutation at 125 uM treated for 30 mins and measured after 2 days by modified Ames test; assay type: functional, Salmonella enterica subsp. enterica serovar Typhimurium; conditions: Salmonella enterica
Salmonella typhimurium [8] = assay: Antimutagenic activity in Salmonella Typhimurium TA100 assessed as inhibition of ethyl methanesulfonate-induced mutation at 15.6 ug/mL treated for 30 mins and measured after 2 days by modified Ames test; assay type: functional, Salmonella enterica subsp. enterica serovar Typhimurium; conditions: Salmonella enterica
Salmonella typhimurium [9] = assay: Antimutagenic activity in Salmonella Typhimurium TA100 assessed as inhibition of ethyl methanesulfonate-induced mutation at 82.5 uM treated for 30 mins and measured after 2 days by modified Ames test; assay type: functional, Salmonella enterica subsp. enterica serovar Typhimurium; conditions: Salmonella enterica

SMILES	inhibition at 7.8 µM (Salmonella typhimurium [1]) [%]	inhibition at 3.9 µM (Salmonella typhimurium [2]) [%]	further results
CC(C)=CCc1cc(/C=C/CO)ccc1O	27.1	20.2	inhibition at 31.3 µM (Salmonella typhimurium [3]): 36.8%
COC(=O)CCc1ccc(O)c(CC=C(C)C)c1	38.5	25.2	MNTC at 15 h [4]: 31.3 µM; inhibition at 31.3 µM (Salmonella typhimurium [3]): 46.8%
COC(=O)CCc1ccc(O)cc1 [4-HYDROXYHYDROCINNAMIC ACID METHYL ESTER]			inhibition (INH) (Salmonella typhimurium [5]): 0%
O=C/C=C/c1ccccc1 [CINNAMALDEHYDE]			inhibition at 25 µg/mL (Salmonella typhimurium [6]): 30%; MNTC at 15 h [4]: 25 µg/mL
O=C(O)/C=C/c1ccc(O)cc1 [COUMARIC ACID]	13.6	11.2	inhibition at 125 µM (Salmonella typhimurium [7]): 49.8%
CC(C)=CCc1cc(/C=C/C(=O)O)ccc1O [DRUPANIN]	0.6	0.3	inhibition at 15.6 µg/mL (Salmonella typhimurium [8]): 12%
COC(=O)/C=C/c1ccc(O)cc1 [METHYL P-HYDROXYCINNAMATE]	0.9	0	inhibition at 82.5 µM (Salmonella typhimurium [9]): 7.6%
COC(=O)/C=C/c1ccc(OC)c(CC=C(C)C)c1 [PALICATIN B METHYL ETHER]	21.5	13.2	
COC(=O)/C=C/c1ccc(O)c(CC=C(C)C)c1 [PLICATIN B]	30.2	25.4	
